Literature values as cited in US7342124B2, “Synthetic techniques and intermediates for polyhydroxy dienyl lactones and mimics thereof” (The Trustees Of The University Of Pennsylvania, priority 2003, dated 2008).

Experiments:
[1] = tested on: two-way mixed-lymphocyte reaction; conditions: in vitro
[2] = tested on: murine splenocytes; conditions: in vitro
[3] = tested on: graft-vs.-host splenomegaly response; conditions: induced by injection of parental splenocytes into F1 recipient mice
[4] = tested on: cell development (M phase); conditions: by binding and stabilizing mitotic spindle microtubules
[5] = tested on: mitotic spindle microtubules; conditions: compared with taxol

## C=C/C=C\[C@H](C)[C@H](OC(N)=O)[C@@H](C)[C@H](O)[C@@H](C)C/C(C)=C\[C@H](C)[C@@H](O)[C@@H](C)/C=C\[C@@H](O)C[C@@H]1OC(=O)[C@H](C)[C@@H](O)[C@H]1C [(+)-discodermolide]
[1]
  suppression of two-way mixed-lymphocyte reaction: suppresses
[2]; at suppression of mixed-lymphocyte reaction and concanavalin A-induced mitogenesis
  associated cytotoxicity: no associated cytotoxicity
[2]; murine splenocytes
  suppression of concanavalin A-induced mitogenesis: suppresses
[3]
  suppression of graft-vs.-host splenomegaly response, relative potency: potency intermediate between those of cyclosporin A and FK506
[4]
  cell cycle arrest: arrests cell development at the M phase
[5]
  microtubule binding affinity relative to taxol: much higher
